Experimental data: ChEMBL document CHEMBL1129093, “Synthesis and biological activities of a novel class of azole-containing antifungal agents” (1996)
≈ marks a conversion by molar mass, not a printed value.

Assays:
Cryptococcus neoformans = assay: Compound was tested in vitro for antifungal activity against Cryptococcus neoformans.; format: functional
Aspergillus flavus [1] = assay: (§1) Compound was tested in vitro for antifungal activity against Aspergillus flavus.; format: functional, asperigillus
Trichophyton benhamiae [2] = assay: (§2) Compound was tested in vitro for antifungal activity against Trichophyton mentagrophytes.; format: functional, trichophyton mentagro
Aspergillus fumigatus = assay: Compound was tested in vitro for antifungal activity against Aspergillus fumigatus.; format: functional
Kluyveromyces marxianus = assay: Compound was tested in vitro for antifungal activity against Candida kefyr.; format: functional
Candida albicans = assay: Compound was tested in vitro for antifungal activity against Candida albicans.; format: functional
Aspergillus flavus [3] = assay: as §1; format: functional
Trichophyton benhamiae [4] = assay: as §2; format: functional, Arthroderma benhamiae

Compound	MIC (Cryptococcus neoformans) [µg/mL]	MIC (Aspergillus flavus [1]) [µg/mL]	MIC (Trichophyton benhamiae [2]) [µg/mL]	MIC (Aspergillus fumigatus) [µg/mL]	MIC (Kluyveromyces marxianus) [µg/mL]	MIC (Candida albicans) [µg/mL]	MIC (Aspergillus flavus [3]) [µg/mL]	MIC (Trichophyton benhamiae [4]) [µg/mL]
Clc1ccc(CN2CCc3ccccc3C2Cn2ccnc2)c(Cl)c1 (stereo not drawn)	1.56 (≈ 4.19 µM)	0.78 (≈ 2.1 µM)	6.25 (≈ 16.8 µM)	0.39 (≈ 1.05 µM)	0.19 (≈ 0.51 µM)	> 50		
Clc1ccc(CN2CCc3ccccc3C2Cn2ccnc2)cc1 (stereo not drawn)	0.39 (≈ 1.15 µM)	0.19 (≈ 0.562 µM)	0.19 (≈ 0.562 µM)	3.12 (≈ 9.23 µM)	0.1 (≈ 0.296 µM)	> 50		
C[C@@H]1[C@H](O)[C@@H](C)/C=C/C=C/C=C/C=C/C=C/C=C/C=C/[C@H](O[C@@H]2O[C@H](C)[C@@H](O)[C@H](N)[C@@H]2O)C[C@@H]2O[C@](O)(C[C@@H](O)C[C@@H](O)[C@H](O)CC[C@@H](O)C[C@@H](O)CC(=O)O[C@H]1C)C[C@H](O)[C@H]2C(=O)O [AMPHOTERICIN B]	0.19 (≈ 0.206 µM)	12.5 (≈ 13.5 µM)	1.56 (≈ 1.69 µM)	25 (≈ 27.1 µM)	0.19 (≈ 0.206 µM)	0.19 (≈ 0.206 µM)		
Fc1ccc(CN2CCc3ccccc3C2Cn2ccnc2)c(F)c1 (stereo not drawn)	> 50	0.78 (≈ 2.3 µM)	0.39 (≈ 1.15 µM)	6.25 (≈ 18.4 µM)	> 50	> 50		
c1ccc(CN2CCc3ccccc3C2Cn2ccnc2)cc1 (stereo not drawn)	> 50	25 (≈ 82.4 µM)	0.19 (≈ 0.626 µM)	25 (≈ 82.4 µM)	> 50	> 50		
Clc1ccc(CN2CCc3ccccc3C2Cn2cncn2)cc1 (stereo not drawn)	6.25 (≈ 18.4 µM)	25 (≈ 73.8 µM)	0.25 (≈ 0.738 µM)	4 (≈ 11.8 µM)	0.39 (≈ 1.15 µM)	> 50		
Clc1ccc(COC(Cn2ccnc2)c2ccc(Cl)cc2Cl)c(Cl)c1 (stereo not drawn) [MICONAZOLE]	0.19 (≈ 0.457 µM)			0.39 (≈ 0.937 µM)	0.09 (≈ 0.216 µM)	12.5 (≈ 30 µM)	0.39 (≈ 0.937 µM)	0.39 (≈ 0.937 µM)
Fc1ccc(CN2CCc3ccccc3C2Cn2ccnc2)cc1 (stereo not drawn)	> 50	6.25 (≈ 19.4 µM)	0.1 (≈ 0.311 µM)	12.5 (≈ 38.9 µM)	> 50	> 50		
c1ccc(CN2CCc3ccccc3C2Cn2cncn2)cc1 (stereo not drawn)	> 50	> 50	4 (≈ 13.1 µM)	> 50	> 50	> 50		
Fc1ccc(CN2CCc3ccccc3C2Cn2cncn2)c(F)c1 (stereo not drawn)	> 50	> 50	2 (≈ 5.88 µM)	> 50	0.39 (≈ 1.15 µM)	> 50		
OC(Cn1cncn1)(Cn1cncn1)c1ccc(F)cc1F [FLUCONAZOLE]	3.12 (≈ 10.2 µM)			> 50	0.39 (≈ 1.27 µM)	> 50	> 50	> 50
Fc1ccc(CN2CCc3ccccc3C2Cn2cncn2)cc1 (stereo not drawn)	> 50	> 50	1 (≈ 3.1 µM)	> 50	> 50	> 50		
Clc1ccc(CN2CCc3ccccc3C2Cn2cncn2)c(Cl)c1 (stereo not drawn)	12.5 (≈ 33.5 µM)	> 50	4 (≈ 10.7 µM)	> 50	> 50	> 50		
